The record followed here is ChEMBL document CHEMBL1155954, “A concise approach to 1,11-didechloro-6-methyl-4'-O-demethyl rebeccamycin and its binding to human serum albumin: fluorescence spectroscopy and molecular modeling method” (Bioorg Med Chem, 2008).

In data set [1] the target is T1, Albumin (Homo sapiens, UniProt P02768). The data set is described as follows: Binding affinity to human serum albumin at 289 kelvin by fluorescence quenching measurement in presence of Zn2+ ions. The data set is classed as ADME. Particulars: isolated protein.
In data set [2] the target is T1, Albumin. The data set can be described thus: Binding affinity to human serum albumin at 289 kelvin by fluorescence quenching measurement in presence of [SO4]2- ions. The data set is classed as ADME. The note with it: isolated protein.
Data set [3] has as its target T1, Albumin. The data set can be described thus: Binding affinity to human serum albumin at 289 kelvin by fluorescence quenching measurement in presence of Cd2+ ions. The data set is classed as ADME. The note with it: isolated protein.
Data set [4] deals with T1, Albumin. The data set is described as follows: Binding affinity to human serum albumin at 289 kelvin by fluorescence quenching measurement in presence of Hg2+ ions. Particulars: isolated protein. The data set is classed as ADME.
In data set [5] the target is T1, Albumin. The data set is described as follows: Binding affinity to human serum albumin at 289 kelvin by fluorescence quenching measurement in presence of Fe3+ ions. The data set is classed as ADME. Particulars: isolated protein.
For data set [6], the target named is T1, Albumin. The data set is described as follows: Binding affinity to human serum albumin at 289 kelvin by fluorescence quenching measurement in presence of [NO3]- ions. Particulars: isolated protein. The data set is classed as ADME.
Data set [7] concerns the target T1, Albumin. The data set is described as follows: Binding affinity to human serum albumin at 309 kelvin by fluorescence quenching measurement. The note with it: isolated protein. The data set is classed as ADME.
In data set [8] the target is T1, Albumin. The data set is described as follows: Binding affinity to human serum albumin at 299 kelvin by fluorescence quenching measurement. The data set is classed as ADME. The note with it: isolated protein.
Data set [9] addresses T1, Albumin. The data set can be described thus: Binding affinity to human serum albumin at 289 kelvin by fluorescence quenching measurement in presence of Ni2+ ions. The data set is classed as ADME. Particulars: isolated protein.
The target in data set [10] is T1, Albumin. The data set is described as follows: Binding affinity to human serum albumin at 289 kelvin by fluorescence quenching measurement in presence of Al3+ ions. The data set is classed as ADME. Particulars: isolated protein.
Data set [11] concerns the target T1, Albumin. The data set is described as follows: Binding affinity to human serum albumin at 289 kelvin by fluorescence quenching measurement in presence of K+ ions. The data set is classed as ADME. Particulars: isolated protein.
Data set [12] deals with T1, Albumin. The data set can be described thus: Binding affinity to human serum albumin at 289 kelvin by fluorescence quenching measurement in presence of Mg2+ ions. The data set is classed as ADME. Particulars: isolated protein.
For data set [13], the target named is T1, Albumin. The data set can be described thus: Binding affinity to human serum albumin at 289 kelvin by fluorescence quenching measurement in presence of Pb2+ ions. The data set is classed as ADME. Particulars: isolated protein.
Data set [14] deals with T1, Albumin. The data set can be described thus: Binding affinity to human serum albumin at 289 kelvin by fluorescence quenching measurement. The data set is classed as ADME. Particulars: isolated protein.
The target of data set [15] is T1, Albumin. The data set is described as follows: Binding affinity to human serum albumin at 289 kelvin by fluorescence quenching measurement in presence of [CO3]2- ions. The data set is classed as ADME. Particulars: isolated protein.
For data set [16], the target named is T1, Albumin. The data set is described as follows: Binding affinity to human serum albumin at 289 kelvin by fluorescence quenching measurement in presence of Ca2+ ions. The data set is classed as ADME. Particulars: isolated protein.
The target of data set [17] is T1, Albumin. The data set is described as follows: Binding affinity to human serum albumin at 289 kelvin by fluorescence quenching measurement in presence of F- ions. The data set is classed as ADME. The note with it: isolated protein.
For data set [18], the target named is T1, Albumin. The data set is described as follows: Binding affinity to human serum albumin at 289 kelvin by fluorescence quenching measurement in presence of [Sio3]2- ions. Particulars: isolated protein. The data set is classed as ADME.
For data set [19], the target named is T1, Albumin. The data set can be described thus: Binding affinity to human serum albumin at 289 kelvin by fluorescence quenching measurement in presence of Bi3+ ions. The data set is classed as ADME. The note with it: isolated protein.
The next data set has as its system K562. The data set can be described thus: Anticancer activity against human K562 cells. The data set is classed as functional, cell-based.

What is called IC50 is the concentration needed to halve the response being measured.

T1 sequence (P02768 whole entry): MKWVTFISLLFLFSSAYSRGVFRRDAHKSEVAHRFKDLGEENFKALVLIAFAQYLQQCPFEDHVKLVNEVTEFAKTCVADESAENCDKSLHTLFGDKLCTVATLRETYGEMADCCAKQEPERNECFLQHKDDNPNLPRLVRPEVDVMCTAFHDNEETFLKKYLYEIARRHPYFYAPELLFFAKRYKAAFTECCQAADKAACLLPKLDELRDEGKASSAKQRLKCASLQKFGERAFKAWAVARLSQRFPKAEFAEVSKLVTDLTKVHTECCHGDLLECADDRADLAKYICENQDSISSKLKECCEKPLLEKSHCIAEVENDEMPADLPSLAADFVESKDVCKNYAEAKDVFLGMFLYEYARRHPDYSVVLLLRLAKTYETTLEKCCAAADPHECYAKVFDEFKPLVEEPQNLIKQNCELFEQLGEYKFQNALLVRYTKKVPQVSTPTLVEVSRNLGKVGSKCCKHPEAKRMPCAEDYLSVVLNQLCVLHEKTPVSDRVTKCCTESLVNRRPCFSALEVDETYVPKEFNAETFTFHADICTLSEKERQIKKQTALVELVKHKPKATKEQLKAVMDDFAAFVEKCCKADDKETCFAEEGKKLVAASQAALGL

In the case of `CN1C(=O)c2c(c3c4ccccc4n([C@@H]4O[C@H](CO)[C@@H](O)[C@H](O)[C@H]4O)c3c3[nH]c4ccccc4c23)C1=O`, the K on Albumin [1] worked out at 7.12 ×10⁶ L/mol; at Albumin [2], 4.33 ×10⁶ L/mol; at Albumin [3], 4.56 ×10⁶ L/mol; on Albumin [4], 8.41 ×10⁶ L/mol; at Albumin [5] it was 3.48 ×10⁶ L/mol; on Albumin [6], 3.4 ×10⁶ L/mol. Also, the K is given as 145000 L/mol at Albumin [7]; 195000 L/mol on Albumin [8]; 5.32 ×10⁶ L/mol on Albumin [9]; 3.93 ×10⁶ L/mol on Albumin [10]; 8.9 ×10⁶ L/mol at Albumin [11]; 4.76 ×10⁶ L/mol at Albumin [12]. For the same compound, the K at Albumin [13] amounted to 4.87 ×10⁶ L/mol; on Albumin [14], 231000 L/mol; on Albumin [15], 3.48 ×10⁶ L/mol; at Albumin [16], 7.17 ×10⁶ L/mol; on Albumin [17], 8.78 ×10⁶ L/mol; at Albumin [18], 6.68 ×10⁶ L/mol. Further, the K at Albumin [19] came to 7.01 ×10⁶ L/mol.
In the data set on K562, `CO[C@H]1[C@H](O)[C@@H](O)[C@H](n2c3c(Cl)cccc3c3c4c(c5c6cccc(Cl)c6[nH]c5c32)C(=O)NC4=O)O[C@@H]1CO` [REBECCAMYCIN] returned an IC50 of 4 µM.
